Results taken from US10960020B2, “Modulation of PCSK9 and LDLR through DRP1 inhibition” (THE BRIGHAM AND WOMEN'S HOSPITAL, INC., priority 2016, dated 2021).

Legend:
Assay type in all cases: cell-based, human
[1] = test system: PCSK9 secretion in HepG2 cells; assay: Secreted PCSK9 ELISA, HepG2 media; details: HepG2, 24 hours; Mdivi-1 50 μM, pitavastatin 1 μM, T0901317 1 μM
Method: Pitavastatin and T0901317 were synthesized and provided by Kowa Company, Ltd. (Tokyo, Japan), and treated at a dose of 1 μM in all experiments. […] Mdivi-1 in DMSO vehicle was added at a concentration of 50 μM in all experiments. Mdivi-1 in DMSO vehicle was added to cell culture media in a 50 mL tube, vortexed hard for several minutes and then incubated at 37° C. prior to adding to cells to ensure the compound was fully solubilized.
HepG2 cells were obtained from ATCC (Manassas, Va.), and cultured in EMEM with L-glutamine (ATCC) medium, 1% pen/strep, with and without 10% FBS (Thermo Fisher Scientific, Waltham, Mass.) in 12-well plates (Corning, Durham, N.C.). HepG2 cells were plated at a density of 60-70% prior to treatment to avoid clumping. […] Cell viability was assessed by Trypan Blue exclusion using live/dead cell counting on a Countess™ II LT automated cell counter (Thermo Fisher Scientific).

[2] = test system: BECLIN1; assay: BECLIN1 mRNA and protein; details: 24 hours
From the text: Human cells and mouse liver was homogenized with TriZolTM (Life Technologies, Grand Island, N.Y.) to isolate RNA. QuantiTectTM Reverse Transcription Kit (Qiagen, Hilden, Germany) was used for reverse transcription on total RNA. cDNA was generated using the Quanta gScriptTM cDNA Synthesis Kit (Bioscience Inc., Gaithersburg, Md.). mRNA levels were quantified on a 7900HT real-time PCR system (Thermo Fisher Scientific) using TaqManTM real-time PCR with the following probes: Hs02758991_g1 (human GAPDH); Mm99999915_g1 (mouse Gapdh); Hs00236329 m1 (human BCL2L1); Hs00247147_m1 (human DRP1); Hs00545399_m1 (human PCSK9); Mm01263610_m1 (mouse Pcsk9); Hs00168352_m1 (human HMGCR); […]); Hs00181192_m1 (human LDLR); Mm00440169_m1 (mouse Ldlr); Hs01088691_m1 (human SREBP1); Mm00550338_m1 (mouse Srebp1); Hs00231674_m1 (human SREBP1a); custom primer (human SREBP1c); Hs01081784_m1 (human SREBP2); Mm01306292_m1 (mouse Srebp2); Hs01005622_m1 (human FASN); […]); Hs00167041_m1 (human HNF1A); Mm00493434_m1 (mouse Hnf1a); Hs00171168 (human APOE); Hs01059118_m1 (human ABCA1); Hs01103582_s1 (human JUN). Mouse SREBP-1c was analyzed by SYBERTM green PCR with the following primers: [NT] […] Protein concentrations were determined by the Pierce BCA AssayTM (Thermo Fisher Scientific). […] Protein levels were normalized to β-ACTIN, α-TUBULIN, or LAMIN A/C with the use of NIH ImageJ software for quantification.

[3] = test system: HepG2 cells; assay: HepG2 viability by Trypan Blue exclusion; details: HepG2, Mdivi-1, 24 hours
Method: HepG2 cells were obtained from ATCC (Manassas, Va.), and cultured in EMEM with L-glutamine (ATCC) medium, 1% pen/strep, with and without 10% FBS (Thermo Fisher Scientific, Waltham, Mass.) in 12-well plates (Corning, Durham, N.C.). HepG2 cells were plated at a density of 60-70% prior to treatment to avoid clumping. Freshly isolated primary human hepatocytes plated at 100% confluency on 12-well plates were obtained from Thermo Fisher Scientific. Three donors were used to obtain experimental data: person, person, and a person. Primary hepatocytes were treated immediately upon arrival and cultured in William's E medium with hepatic maintenance supplement pack (Thermo Fisher Scientific), 1% pen/strep (VWR; Radnor, Pa.), and 10% FBS (Thermo Fisher Scientific). Cell viability was assessed by Trypan Blue exclusion using live/dead cell counting on a Countess™ II LT automated cell counter (Thermo Fisher Scientific).

[4] = test system: HMGCR; assay: Western blot, HepG2 HMGCR protein; details: HepG2, Mdivi-1 50 μM, 24 hours

Compound: COc1cc(-n2c(S)nc3ccccc3c2=O)c(Cl)cc1Cl [Mdivi-1, 3-(2,4-Dichloro-5-methoxyphenyl)-2,3-dihydro-2-thioxo-4(1H)-quinazolinone]
- PCSK9 secretion change by ELISA [1]: −76.1%
- BECLIN1 protein abundance ([2]; HepG2, Mdivi-1 50 μM): did not alter
- BECLIN1 mRNA ([2]; human hepatocytes, Mdivi-1 50 μM): did not alter
- cell viability [3]: without altering
- HMGCR abundance increase [4]: not
